Common to all, as to assay: NCI anticancer screen, dose series, 48 h
Assay [1] relates to KM12 colon.
Assay [2] concerns SF-539 CNS.
The subject of assay [3] is CCRF-CEM leukemia.
Assay [4] has as its system UACC-62 melanoma.
For assay [5], the system named is SK-MEL-2 melanoma.
Assay [6] deals with U251 CNS.
In assay [7] the test system is 786-0 renal.
For assay [8], the system named is COLO 205 colon.
Assay [9] concerns UACC-257 melanoma.
The subject of assay [10] is HOP-62 NSCLC.
In assay [11] the test system is HCC-2998 colon.
Assay [12] concerns PC-3 prostate.
In assay [13] the test system is EKVX NSCLC.
Assay [14] has as its system NCI-H23 lung.
For assay [15], the system named is OVCAR-3 ovarian.

“And” between values parts separate entries of the source, which are not always exact repeats. Equal entries are not always repeated.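 Exposure lasted 48 hours, with cells grown in 96-well plates and compounds tested at five concentrations. Here, GI50 denotes the concentration required for 50% inhibition of growth. The concentration for full growth arrest is given as TGI.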 A value given as a limit tells only on which side of the number the result lay.

In the case of `C=C1CC[C@H](O)C(C)(C)[C@@H]1CC/C(C)=C/CC/C=C(\C)CC/C=C(\C)CCC=C(C)C`, the TGI in assay [1], in assay [2], in assay [3], in assay [4], in assay [5] and in assay [6] was > 100 µM in each case. In addition, the TGI in assay [7], in assay [8], in assay [9], in assay [10], in assay [11] and in assay [12] was > 100 µM in each case. For the same compound, the TGI in assay [13], in assay [14] and in assay [15] was > 100 µM each time.
`N#C/C(N)=C(\C#N)N=CN`: the TGI in assay [1], in [2], in assay [3], in assay [4], in assay [5] and in [6] was > 100 µM in each case. Further, the TGI in assay [7], in [8], in assay [9], in assay [10], in assay [11] and in assay [12] was > 100 µM throughout. In addition, the TGI in assay [13], in assay [14] and in assay [15] was > 100 µM each time.
`NC(N)=N/N=C/c1c(-c2cccc([N+](=O)[O-])c2)nc2n1CCS2`: the TGI in [1] is 68.5 µM; in assay [2], 43.7 µM; in [3], > 100 µM; in assay [4], 39 µM; in assay [5] it was 34 µM; in [6], 41.7 µM. The TGI in [7] was > 100 µM; in assay [8], 60.6 µM; in assay [9], 36.1 µM; in assay [10] it was > 100 µM; in [11] it was 48 µM; in assay [12], 44.5 µM. The TGI in [13] worked out at 54.5 µM; in assay [14], 58.9 µM; in assay [15] it was 63 µM.
For `O=C1C=CC=C/C1=C1\N=C(c2ccccc2OCC(=O)c2ccc(Br)cc2)SS1`, the TGI in assay [1], in assay [2], in assay [3], in assay [4], in [5] and in [6] was > 100 µM each time. The TGI is > 100 µM in [7]; > 100 µM in assay [8]; > 100 µM in [9]; 24 µM in assay [10]; > 100 µM in assay [11]; > 100 µM in assay [12]. Also, the TGI in [13], in assay [14] and in [15] was > 100 µM throughout.
For the compound `CCc1c(C)c(C#N)c(=S)n(C2OC(COC(C)=O)C(OC(C)=O)C(OC(C)=O)C2OC(C)=O)c1C` (centres undefined), the TGI in assay [1] is > 100 µM; in assay [2] it was > 100 µM; in assay [3], > 100 µM; in assay [4], > 100 µM; in assay [5], 32.9 µM; in [6], > 100 µM. Moreover, the TGI in assay [7] is > 100 µM and 41.5 µM; in [8], > 100 µM; in assay [9], > 100 µM; in [10], > 100 µM and 21.8 µM; in [11] it was > 100 µM; in [12] it was > 100 µM and 27.9 µM. Moreover, the TGI in assay [13], in [14] and in assay [15] was > 100 µM throughout. Moreover, the GI50 in [2] was > 100 µM and 31.4 µM; in [4] it was > 100 µM and 47.6 µM; in assay [6], > 100 µM and 26.9 µM; in assay [10], 45.4 µM and 5.33 µM.
For the compound `O=C1NCCCNCCCNCCCNC(=O)c2cccc1n2`, the TGI in [1], in assay [2], in assay [3], in assay [4], in assay [5] and in [6] was > 100 µM throughout. Moreover, the TGI in assay [7], in assay [8], in assay [9], in [10], in assay [11] and in assay [12] was > 100 µM in each case. In addition, the TGI in assay [13], in [14] and in assay [15] was > 100 µM each time.
Consider `CC12CCC([C@H](C(O)C3CCCCC3)C1=O)C2(C)C` (some centres undefined), for which the TGI in assay [1], in assay [2], in [3], in assay [4], in assay [5] and in [6] was > 100 µM in each case. Besides, the TGI in assay [7], in [8], in assay [9], in assay [10], in [11] and in assay [12] was > 100 µM each time. Further, the TGI in assay [13], in assay [14] and in assay [15] was > 100 µM each time.
Take `NC(CCC(=O)O)C(=O)N1CCN(c2nc(N3CCCC3)c3nc(Cl)c(NCc4ccccc4)nc3n2)CC1` (centres undefined): the TGI in assay [1] was 40.3 µM; in [2] it was 28.5 µM; in [3], 26.2 µM; in assay [4], 24.7 µM; in [5], 31.5 µM; in assay [6], 30.2 µM. Moreover, the TGI in [7] came out at 25.9 µM; in assay [8] it was 23.9 µM; in assay [9], 28.5 µM; in assay [10], 28.4 µM; in [11] it was 24.9 µM; in [12], 26.9 µM. Further, the TGI was 27.7 µM in assay [13], 32.3 µM in assay [14] and 22.9 µM in assay [15].

Source of the values: PubChem BioAssay (NCI).
